Laboratory results as given in ChEMBL document CHEMBL1201862, “PubChem BioAssay data set” (2004).
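Tested at 5 concentrations; 48 h exposure; 96-well plates; endpoints linearly interpolated, else capped at highest concentration. GI50 marks 50% less growth.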 Calls of active or inactive are those of the source. Cut-off read from the data, not from the text of the source: active = GI50 up to about 1.1 µM and inactive = higher.

Key:
Test in all cases: growth of human tumour cells (NCI), 48 h
[1] = test system: SF-268
[2] = test system: HCT-15
[3] = test system: SF-539
[4] = test system: MOLT-4
[5] = test system: HL-60
[6] = test system: SNB-19
[7] = test system: SK-OV-3
[8] = test system: SN12C
[9] = test system: EKVX
[10] = test system: UACC-257
[11] = test system: OVCAR-8
[12] = test system: SW-620
[13] = test system: KM12
[14] = test system: CCRF-CEM
[15] = test system: HCC 2998
[16] = test system: U-251
[17] = test system: NCI-H23
[18] = test system: NCI-H522
[19] = test system: RPMI-8226
[20] = test system: NCI-H460

Compound | GI50 [1] | GI50 [2] [µM] | GI50 [3] | GI50 [4] | GI50 [5] | GI50 [6] | GI50 [7] | GI50 [8] | GI50 [9] | GI50 [10] | GI50 [11] | GI50 [12] | GI50 [13] | GI50 [14] | GI50 [15] | GI50 [16] | GI50 [17] | GI50 [18] | GI50 [19] | GI50 [20]
CCCCCCCCC[C@@H]1C[C@H](O)[C@H](Cc2ccccc2)N1C(=O)OC(C)(C)C | 18.7 µM (inactive) | 18.6 | 20.9 µM (inactive) | 36.5 µM (inactive) | 22.9 µM (inactive) | 18.6 µM (inactive) | 19.6 µM (inactive) | 16.7 µM (inactive) | 14.4 µM (inactive) | 15.8 µM (inactive) | 17.5 µM (inactive) | 20.1 µM (inactive) | 18.7 µM (inactive) | 20.2 µM (inactive) | 14.4 µM (inactive) | 16.1 µM (inactive) | 15.6 µM (inactive) | 16.4 µM (inactive) | 24.1 µM (inactive) | –
CCCCCCCC/C=C\CCCCCCCCNc1ccn(C2OC(COP(=O)(O)OC3CC(n4cc(F)c(=O)[nH]c4=O)OC3CO)C(O)C2O)c(=O)n1 (centres undefined) | < 0.0292 µM (active) | 2.48 | < 0.0484 µM (active) | 0.471 µM (active) | 1.25 µM (inactive) | 0.376 µM (active) | 14.6 µM (inactive) | > 100 µM (inactive) | > 100 µM (inactive) | > 37.7 µM (inactive) | 0.329 µM (active) | > 41.3 µM (inactive) | 45 µM (inactive) | < 0.0215 µM (active) | > 100 µM (inactive) | 2.89 µM (inactive) | 0.433 µM (active) | > 53.8 µM (inactive) | 0.0509 µM (active) | –
O=C(O)/C=C/c1c[nH]cn1 | – | – | > 500 µM (inactive) | > 500 µM (inactive) | – | > 500 µM (inactive) | > 500 µM (inactive) | > 500 µM (inactive) | > 500 µM (inactive) | > 500 µM (inactive) | > 500 µM (inactive) | > 500 µM (inactive) | > 500 µM (inactive) | – | > 500 µM (inactive) | > 500 µM (inactive) | > 500 µM (inactive) | > 500 µM (inactive) | > 500 µM (inactive) | > 500 µM (inactive)
CCCC(=O)OC[n+]1ccc2c(C)c3[nH]c4ccc(OC)cc4c3c(C)c2c1 | 0.313 µM (active) | 0.288 | 0.305 µM (active) | 0.0289 µM (active) | 0.259 µM (active) | – | 1.51 µM (inactive) | 0.222 µM (active) | 1.01 µM (active) | 2.08 µM (inactive) | 0.092 µM (active) | 0.0692 µM (active) | 0.337 µM (active) | – | 0.482 µM (active) | 0.391 µM (active) | 0.347 µM (active) | 1.09 µM (active) | 0.0296 µM (active) | 0.0481 µM (active)
COc1cc(C(C)c2cc3c(cc2OCCO)OCO3)cc(OC)c1OC (centres undefined) | 3.9 µM (inactive) | 0.824 | 1.6 µM (inactive) | 0.935 µM (active) | 0.313 µM (active) | 3.93 µM (inactive) | 2.19 µM (inactive) | 5.82 µM (inactive) | 3.79 µM (inactive) | 7.16 µM (inactive) | 3.27 µM (inactive) | 0.746 µM (active) | – | 1.82 µM (inactive) | 2.04 µM (inactive) | 2.48 µM (inactive) | 1.91 µM (inactive) | 0.547 µM (active) | 4.59 µM (inactive) | 2.2 µM (inactive)
CC1=C2C(=C[C@H]3[C@]4(C)CCCC(C)(C)[C@H]4CC[C@]34O[C@H]24)OC1=O | > 100 µM (inactive) | > 100 | – | > 100 µM (inactive) | – | > 100 µM (inactive) | > 100 µM (inactive) | > 100 µM (inactive) | > 100 µM (inactive) | > 100 µM (inactive) | – | > 100 µM (inactive) | > 100 µM (inactive) | – | > 100 µM (inactive) | > 100 µM (inactive) | > 100 µM (inactive) | > 100 µM (inactive) | > 100 µM (inactive) | > 100 µM (inactive)
COc1c(Cl)cc(S(=O)O)cc1Cl | > 100 µM (inactive) | – | > 100 µM (inactive) | > 100 µM (inactive) | > 100 µM (inactive) | > 100 µM (inactive) | > 100 µM (inactive) | > 100 µM (inactive) | > 100 µM (inactive) | > 100 µM (inactive) | – | – | > 100 µM (inactive) | > 100 µM (inactive) | > 100 µM (inactive) | > 100 µM (inactive) | > 100 µM (inactive) | > 100 µM (inactive) | – | > 100 µM (inactive)
C[C@H]1[C@@H]2C[C@@H]3O[C@@]34[C@H]3CCC5Cc6nc7c(nc6C[C@@]5(C)[C@]3(O)CC(=O)[C@@]24CO[C@]12OC(C)(C)C[C@@H]2O)CC1CC[C@@H]2C3=C[C@H]4O[C@@]5(OC(C)(CO)C[C@@H]5O)[C@H](C)[C@@]4(O)[C@]3(C)[C@@H](O)CC2[C@]1(C)C7 (some centres undefined) | 0.0181 µM (active) | 0.121 | 0.0179 µM (active) | – | 0.00361 µM (active) | – | 0.0168 µM (active) | > 3.52 µM (inactive) | 0.0573 µM (active) | 0.139 µM (active) | 3.02 µM (inactive) | 0.0333 µM (active) | 0.0706 µM (active) | 0.0105 µM (active) | 0.506 µM (active) | 0.00511 µM (active) | 0.0414 µM (active) | 0.0955 µM (active) | 0.00139 µM (active) | 0.00955 µM (active)
COc1ccc(-c2nnc3c4ccccc4sn23)cc1 | 22.5 µM (inactive) | 6.28 | 32.7 µM (inactive) | 15.3 µM (inactive) | 15.9 µM (inactive) | 29.9 µM (inactive) | – | 17.8 µM (inactive) | 50.7 µM (inactive) | 20 µM (inactive) | 32.5 µM (inactive) | 49 µM (inactive) | 19.3 µM (inactive) | 7.23 µM (inactive) | 17 µM (inactive) | 23.4 µM (inactive) | 13.3 µM (inactive) | – | 19.1 µM (inactive) | 4.58 µM (inactive)
CC(=O)N(CCN1C(=O)c2ccccc2C1=O)CCN1C(=O)c2ccccc2C1=O | > 100 µM (inactive) | > 100 | – | > 100 µM (inactive) | > 100 µM (inactive) | > 100 µM (inactive) | > 100 µM (inactive) | > 100 µM (inactive) | > 100 µM (inactive) | > 100 µM (inactive) | > 100 µM (inactive) | > 100 µM (inactive) | > 100 µM (inactive) | > 100 µM (inactive) | > 100 µM (inactive) | > 100 µM (inactive) | > 100 µM (inactive) | > 100 µM (inactive) | > 100 µM (inactive) | > 100 µM (inactive)
CN(CCO)CCC1COc2ccccc2O1 (centres undefined) | > 10 µM (inactive) | > 10 | > 10 µM (inactive) | > 10 µM (inactive) | > 10 µM (inactive) | > 10 µM (inactive) | > 10 µM (inactive) | > 10 µM (inactive) | > 10 µM (inactive) | – | > 10 µM (inactive) | > 10 µM (inactive) | > 10 µM (inactive) | > 10 µM (inactive) | > 10 µM (inactive) | > 10 µM (inactive) | > 10 µM (inactive) | 2.21 µM (inactive) | > 10 µM (inactive) | > 10 µM (inactive)
N#CSCC1COc2ccccc2O1 (centres undefined) | > 10 µM (inactive) | 9.89 | > 10 µM (inactive) | 3.3 µM (inactive) | 2.55 µM (inactive) | > 10 µM (inactive) | > 10 µM (inactive) | 7.57 µM (inactive) | > 10 µM (inactive) | – | > 10 µM (inactive) | 4.97 µM (inactive) | > 10 µM (inactive) | 0.628 µM (active) | > 10 µM (inactive) | > 10 µM (inactive) | > 10 µM (inactive) | 2.62 µM (inactive) | 4.98 µM (inactive) | > 10 µM (inactive)
CC(C)CCC1CC2C(=O)N(c3ccccc3)C(=O)C2c2[nH]c3ccccc3c21 (centres undefined) | 2.05 µM (inactive) | 2.71 | 0.711 µM (active) | 2.77 µM (inactive) | 1.11 µM (active) | 1.24 µM (inactive) | 1.36 µM (inactive) | 2.67 µM (inactive) | 1.55 µM (inactive) | – | 0.9 µM (active) | 0.796 µM (active) | 1.28 µM (inactive) | 1.33 µM (inactive) | 1.42 µM (inactive) | 0.455 µM (active) | 2.79 µM (inactive) | – | 1.08 µM (active) | 1.13 µM (inactive)
N#C/C(=C\c1ccc(Br)cc1)c1nc(-c2cc3ccccc3oc2=O)cs1 | 14.5 µM (inactive) | 32.1 | 14 µM (inactive) | > 50 µM (inactive) | > 50 µM (inactive) | 10.7 µM (inactive) | 18.9 µM (inactive) | 20 µM (inactive) | 13.3 µM (inactive) | 11.7 µM (inactive) | 15.9 µM (inactive) | 19.8 µM (inactive) | 19.1 µM (inactive) | 41.8 µM (inactive) | 19.6 µM (inactive) | 9.93 µM (inactive) | – | 7.98 µM (inactive) | 44.1 µM (inactive) | 16.7 µM (inactive)
CN1C[C@H]2[C@@H](C1=O)[C@H](c1ccccc1)ON2C | – | > 100 | – | > 100 µM (inactive) | > 10 µM (inactive) | > 100 µM (inactive) | > 100 µM (inactive) | > 100 µM (inactive) | – | > 100 µM (inactive) | > 100 µM (inactive) | > 100 µM (inactive) | – | > 100 µM (inactive) | > 100 µM (inactive) | > 100 µM (inactive) | > 100 µM (inactive) | > 100 µM (inactive) | > 100 µM (inactive) | > 100 µM (inactive)
